# Laboratory results taken from the NIST ThermoML archive (doi:10.1016/j.fluid.2006.12.001).
# Experiment: xn = mol fraction of the nth substance listed
# Conditions: 303.2 K; 101 kPa; Liquid; Taylor dispersion method; x1 = 0
row,Compound,binary diffusion coefficient
1,CCCCn1cc[n+](C)c1.F[P-](F)(F)(F)(F)F [1-butyl-3-methylimidazolium hexafluorophosphate] + O,1.25e-09 m2/s
2,CCCCn1cc[n+](C)c1.F[B-](F)(F)F [1-butyl-3-methylimidazolium tetrafluoroborate] + O,1.3e-09 m2/s
3,CCn1cc[n+](C)c1.F[P-](F)(F)(F)(F)F [1-ethyl-3-methylimidazolium hexafluorophosphate] + O,1.41e-09 m2/s
4,CCn1cc[n+](C)c1.F[B-](F)(F)F [1-ethyl-3-methylimidazolium tetrafluoroborate] + O,1.52e-09 m2/s
5,CCCCCCn1cc[n+](C)c1.F[P-](F)(F)(F)(F)F [1-hexyl-3-methylimidazolium hexafluorophosphate] + O,1.11e-09 m2/s
6,CCCCCCn1cc[n+](C)c1.F[B-](F)(F)F [1-hexyl-3-methylimidazolium tetrafluoroborate] + O,1.24e-09 m2/s
7,CCCCCCCC[n+]1ccn(C)c1.F[B-](F)(F)F [1-methyl-3-octylimidazolium tetrafluoroborate] + O,1.14e-09 m2/s
8,CCCCCCCC[n+]1ccn(C)c1.F[P-](F)(F)(F)(F)F [1-octyl-3-methylimidazolium hexafluorophosphate] + O,1.06e-09 m2/s
